Experimental data as given in US20260176285A1, “SALT OF DIOXANE QUINOLINE COMPOUND, CRYSTAL FORM THEREOF, PREPARATION METHODS THEREFOR AND USES THEREOF” (Beijing Scitech-MQ Pharmaceuticals Limited, priority 2022, published 2026).

What was measured:
Type in all cases: physicochemical
[1] = Solid-state stability evaluation (XRPD, HPLC); conditions: listed as Di-p-toluenesulfonate salt crystal form A-IV
Method: The following 6 test samples were placed under 25° C./60% RH and 40° C./75% RH conditions for 1 week, and then the physical and chemical stability of the samples was tested by XRPD and HPLC.
At the same time, after the p-toluenesulfonate salt crystal form A-II and crystal form B-III solids were placed at 80° C. for 24 hours, the physical and chemical stability of the samples were tested by XRPD and HPLC.

[2] = Hygroscopicity by dynamic moisture sorption (DVS); conditions: DVS, listed as Di-p-toluenesulfonate salt crystal form A-IV
Method: Dynamic moisture sorption (DVS): The curves were collected on a DVS Intrinsic of SMS (Surface Measurement Systems). At 25° C., the humidity range was 0% RH-95% RH, the step was 10% (the last step was 5%), and the dm/dt was 0.002%/min.
The hygroscopicity of the free compound of formula (I), mucate salt crystal form A-I, p-toluenesulfonate salt crystal forms A-II and B-III, di-p-toluenesulfonate salt crystal form A-IV and phosphate salt crystal form A-V was evaluated by dynamic moisture sorption instrument (DVS). Starting from 0% relative humidity (0% RH), the test collected the mass change percentage of the samples under constant temperature of 25° C. with humidity changes (0% RH-95% RH-0% RH).

[3] = Dynamic solubility in water, SGF, FaSSIF and FeSSIF; set-up: S (dynamic solubility): unit not given here; conditions: listed as Di-p-toluenesulfonate salt crystal form A-IV; for S (dynamic solubility): 37° C., feed 10 mg/mL
Method: Biological solvent Preparation • 1. […] 67.5 μL of concentrated hydrochloric acid (12 M) was added and the mixture was adjusted to a pH value of 1.8 with 1 M hydrochloric acid or 1 M NaOH solution. Purified water was added to make up to volume. • 2. Preparation of Fasted State Simulated Intestinal Fluid (FaSSIF): 0.17 g of anhydrous NaH2PO4, 0.021 g of NaOH, and 0.31 g of NaCl were weighed into a 50-mL volumetric flask. About 48 mL of purified water was added to dissolve the mixture completely, and the solution was adjusted to a pH value of 6.5 with 1 M hydrochloric acid or 1 M NaOH solution. Purified water was added to make up to volume. 0.11 g of SIF powder was added and dissolved completely. • 3. Preparation of Fed State Simulated Intestinal Fluid (FeSSIF): 0.41 mL of glacial acetic acid, 0.20 g of NaOH and 0.59 g of NaCl were weighed into a 50-mL volumetric flask. About 48 mL of purified water was added to dissolve the mixture completely, and the solution was adjusted to a pH value of 5.0 with 1 M hydrochloric acid or 1 M NaOH solution. Purified water was added to make up to volume. 0.56 g of SIF powder was added and dissolved completely.
The dynamic solubility of the free state, the mucate salt crystal form A-I, the p-toluenesulfonate salt crystal form A-II, the di-p-toluenesulfonate salt crystal form A-IV and the phosphate salt crystal form A-V of the compound of formula (I) in water and three biological solvents was evaluated.
The samples at each time point were centrifuged and filtered (0.45 μm PTFE filter head), and the HPLC concentration and pH value of the filtrate were determined.

Structure (SMILES): O=C(Nc1ccc(F)cc1)C1(C(=O)Nc2ccc(Oc3ccnc4cc(OCCCN5CCOCC5)c5c(c34)OCCO5)c(F)c2)CC1 [Example 4, N-(3-fluoro-4-((5-(3-morpholinopropoxy)-2,3-dihydro-[1,4]dioxano[2,3-f]quinolin-10-yl)oxy)phenyl)-N-(4-fluorophenyl)cyclopropane-1,1-dicarboxamide]
- Purity ([1]; 25° C./60% RH, 1 week): 99.19 area %
- Purity/initial purity ([1]; 25° C./60% RH, 1 week): 100.0%
- Purity ([1]; 40° C./75% RH, 1 week): 99.25 area %
- Purity/initial purity ([1]; 40° C./75% RH, 1 week): 100.1%
- Purity ([1]; Starting): 99.18 area %
- Moisture adsorption (25° C./80% RH) ([2]; 25° C./80% RH): 3.70%
- Hygroscopicity ([2]; 25° C.): Hygroscopic
- S (dynamic solubility) ([3]; FaSSIF, 1 hour): 0.035
- pH of the filtrate ([3]; FaSSIF, 1 hour): 5.6
- S (dynamic solubility) ([3]; FaSSIF, 2 hours): 0.080
- pH of the filtrate ([3]; FaSSIF, 2 hours): 5.2
- S (dynamic solubility) ([3]; FaSSIF, 4 hours): 0.16
- pH of the filtrate ([3]; FaSSIF, 4 hours): 5.0
- S (dynamic solubility) ([3]; FaSSIF, 24 hours): 0.20
- pH of the filtrate ([3]; FaSSIF, 24 hours): 5.0
- S (dynamic solubility) ([3]; FeSSIF, 1 hour): 1.6
- pH of the filtrate ([3]; FeSSIF, 1 hour): 4.9
- S (dynamic solubility) ([3]; FeSSIF, 2 hours): 1.8
- pH of the filtrate ([3]; FeSSIF, 2 hours): 4.8
- S (dynamic solubility) ([3]; FeSSIF, 4 hours): 1.4
- pH of the filtrate ([3]; FeSSIF, 4 hours): 4.8
- S (dynamic solubility) ([3]; FeSSIF, 24 hours): 1.0
- pH of the filtrate ([3]; FeSSIF, 24 hours): 4.9
- S (dynamic solubility) ([3]; H2O, 1 hour): 2.9
- pH of the filtrate ([3]; H2O, 1 hour): 3.7
- S (dynamic solubility) ([3]; H2O, 2 hours): 2.9
- pH of the filtrate ([3]; H2O, 2 hours): 3.9
- S (dynamic solubility) ([3]; H2O, 4 hours): 2.8
- pH of the filtrate ([3]; H2O, 4 hours): 3.8
- S (dynamic solubility) ([3]; H2O, 24 hours): 2.7
- pH of the filtrate ([3]; H2O, 24 hours): 3.8
- S (dynamic solubility) ([3]; SGF, 1 hour): 4.5
- pH of the filtrate ([3]; SGF, 1 hour): 1.9
- S (dynamic solubility) ([3]; SGF, 2 hours): 4.6
- pH of the filtrate ([3]; SGF, 2 hours): 1.9
- S (dynamic solubility) ([3]; SGF, 4 hours): 4.3
- pH of the filtrate ([3]; SGF, 4 hours): 1.9
- S (dynamic solubility) ([3]; SGF, 24 hours): 4.2
- pH of the filtrate ([3]; SGF, 24 hours): 1.9
